US5863716A, “Treatment of plasmodium” (The Leland Stanford Junior University Board of Trustees, priority 1997, dated 1999)
Like-named read-outs stand apart in the source and are kept apart here.

Tests used:
Type in all cases: cell-based, Plasmodium falciparum
P. falciparum strain FCB = assay: Inhibition of intraerythrocytic growth in culture, Giemsa staining after 24 h; conditions: for inhibition at 5 µM: Plasmodium falciparum, read-out: [%] inhibition of growth
Text: (§1) P. falciparum strain FCB was used for all experiments and cultured in vitro in according to a modification of the method of Trager and Jensen left off. Trager, W. and Jensen, J. B. (1976) Human malaria in continuous culture., Science (Wash. D.C.) 193: 673-675 Haldar, K., Ferguson, M. A. J. and Cross, G. A. M. (1985) Acylation of a Plasmodium falciparum merozoite surface antigen via sn-1, 2-diacyl glycerol. J. Biol. Chem. 260; 4969-4974. The culture medium contained RPMI 1640 supplemented with 25 Mm hepes, Ph 7.4/11 […] glucose/92 μM hypoxanthine/0.18% sodium bicarbonate/25 μM gentamicin and 10% AB^+ human sera. The parasites were grown in A^+ erythrocytes at 2.5-5% hematocrit. Parasite cultures were synchronized by separation of the early and late stages on a Percoll gradient. The subsequent reincubation of these stages in culture were used to obtain cells 12-24 h in the life cycle. Inhibition of sphingomyelin biosynthetic activity using 5 μM of the various compounds was carried out as described in Example 1. 5 μM of the various compounds were added to 0-12 h rings in the culture medium and cells were examined by Giemsa staining after 24 h.

sphingomyelin synthase = assay: Inhibition of plasmodial sphingomyelin biosynthesis in intact infected erythrocytes (C6-NBD-ceramide to C6-NBD-sphingomyelin, TLC); conditions: for [%] inhibition of sphingomyelin biosynthetic activity: 5 μM of compound; for effect on enzyme (sphingomyelin synthase) activity: 5 μM, see Example 3
Procedure: 1×10^8 infected cells 24 h after invasion were washed serum-free in RPMI 1640 and preincubated for thirty min at 37° C. in 1 ml of RPMI 1640 containing 0-5 μM or 0-500 μM of PPMP. (C6-NBD-ceramide (N-[7-(4-nitrobenzo-2-oxa-1,3-diazide)]-6-aminocaproyl-D-erythro-sphingosine) was added to each sample at a final concentration of 5 μM, the samples further incubated for 30 min at 37° C. and cellular lipids extracted. C6-NBD-sphingomyelin was resolved by TLC and quantitated by fluorescence spectrophotometry as described previously. Bligh, E. G. and Dyer, W. Y. (1959) A rapid method for total lipid extraction and purification., Can. J. Biochem. Physiol. 37: 911-917. Haldar, K., Uyetake, L., Ahori, N., Elmendorf, H. G. and Lu, W-1. (1991) The accumulation and metabolism of a fluorescent ceramide derivative in Plasmodium falciparum--infected erythrocytes., Mo. Biochem. Parasitol. 49: 143-156. Elmendorf, H. G. and Haldar, K. (1994) Plasmodium falciparum exports the Golgi marker sphingomyelin synthase into a tubovesicular network in the cytoplasm of mature erythrocytes., J. Cell Biol. 124: 449-462. Each value obtained represented the mean of triplicate determinations from five experiments. The arrow bars indicate the standard deviations. The results are depicted in FIG. 1.
as §1

[1] = test system: P. falciparum schizonts and merozoites; assay: Schizont maturation and merozoite invasion in the presence of drug; conditions: 5 μM
Procedure: Schizont-stage parasites isolated over Percoll were allowed to invade in the presence of RPMI 1640 containing 10% human serum or in the presence of RPMI 1640 containing 10% human serum and 5 μM PPMP. 1×10^8 infected erythrocytes of the appropriate stage were incubated in 1 ml of RPMI 1640 supplemented with 2mg/ml defatted BSA and 20 μM C5 -DMB-ceramide. Cells were washed and fixed as described in Example 5. Sequential micrographs were taken on a custom made laser confocal microscope at 400 nm intervals along the Z axis. Raw data were processed as described previously.
Furthermore, the released daughter merozoites enter red cells to form new rings in the continued presence of the drug. This supports the conclusion that the parasite sphingomyelin synthase is essential only to ring and trophozoite-infected red cells in the first 30 to 36 h of intraerythrocytic development.
To determine whether the parasite specific sphingomyelin synthase activity is required for the development of the TVM, ring-infected erythrocytes inhibited in the enzyme from the onset of intra- erythrocytic development were employed. […] Optical sections obtained by staining with C5 DMB-ceramide were observed. A tubular structure was seen extending from the body of the parasite apparently connected to a larger vesicle in the red cell. In rings formed in the presence of PPMP, the intraerythrocytic structures are seen as discrete domains, separated from each other in all three sections. […] Thus, specific inhibition of the parasite's sphingomyelin biosynthetic activity appears to alter the interconnected "tubovesicular morphology" of the TVM into isolated intraerythrocytic compartments or "vesicles" in ring stage parasites.

P. falciparum = assay: Intraerythrocytic development in long term synchronized culture, parasitemia over consecutive cycles; conditions: Plasmodium falciparum; over three cycles of growth; read-out: lowest effective, killing concentration
Procedure: Synchronized cultures 12 h after invasion were subjected to different concentrations of PPMP. Parasitemias of drug-treated cultures were determined at various time points during two intraerythrocytic cycles and compared to cells grown in the absence of drug.
The effect of the single lipid analogs to inhibit parasite development in long term culture in consecutive cycles of the parasite growth were investigated. The studies were initiated with synchronized, young rings (0-12h) at 10% parasitemia. In order to ensure healthy growth of the malaria parasite in vitro, the parasitemias of the cultures are not allowed to exceed 10%. Yet under normal conditions a 3-6 fold increase in parasitemias is detected with each round of invasion: thus for each new cycle, the cultures were diluted 4-fold into fresh erythrocytes in the absence or presence of the drug. […] The lowest effective, killing concentration of PDMP over three cycles of growth is 1.0 μM.

[2] = 5 μM added to 0-12 h rings, Giemsa staining after 24 h

CCCCCCCCCC(=O)N[C@@H](CN1CCOCC1)[C@H](O)c1ccccc1 (relative stereo) [dl-erythro-PDMP]
inhibition at 5 µM (P. falciparum strain FCB; [2]): 5%

CCN(CC)CCO[C@H]1CC[C@@]2(C)C(=CC[C@@H]3[C@@H]2CC[C@]2(C)C(=O)CC[C@@H]32)C1 [U 18666 A]
inhibition at 5 µM (P. falciparum strain FCB; [2]): 1% | [%] inhibition of sphingomyelin biosynthetic activity (sphingomyelin synthase): 0%

CCCCCCCCCCCCCCC[C@H](O)[C@@H](N)CO (racemic) [dl-dihydrosphingosine]
[%] inhibition of growth (P. falciparum strain FCB; [2]): 8% | [%] inhibition of sphingomyelin biosynthetic activity (sphingomyelin synthase): 4% | effect on enzyme (sphingomyelin synthase) activity (sphingomyelin synthase): no effect

CCCCCCCCCCCCC/C=C/[C@@H](O)[C@@H](N)CO [sphingosine]
inhibition at 5 µM (P. falciparum strain FCB): 0% | [%] inhibition of sphingomyelin biosynthetic activity (sphingomyelin synthase): 0% | effect on enzyme (sphingomyelin synthase) activity (sphingomyelin synthase): no effect

CCCCCCCCCC(=O)N[C@H](CN1CCOCC1)[C@H](O)c1ccccc1 (relative stereo) [dl-threo-PDMP, dl-threo-1-phenyl-2-decanoylamino-3-morpholino-1-propanol]
inhibition at 5 µM (P. falciparum strain FCB; [2]): 100% | fate of schizonts greater than 40 h in the cycle [1]: mature and rupture | minimal effective concentration (P. falciparum): 1 µM

CN(C)CCCN1c2ccccc2CCc2ccccc21 [imipramine]
inhibition at 5 µM (P. falciparum strain FCB): 7% | [%] inhibition of sphingomyelin biosynthetic activity (sphingomyelin synthase): 0%

CCCCCCCCCCCCCCCCCCN [stearylamine]
inhibition at 5 µM (P. falciparum strain FCB; [2]): 0%
